{"source": "paper PMC4457358", "about": "“Structure–activity studies in the development of a hydrazone based inhibitor of adipose-triglyceride lipase (ATGL)” (Bioorganic & Medicinal Chemistry, 2015)", "key": {"[1]": {"target": "T1, monoglyceride lipase (MGL) (Mus musculus, UniProt O35678)", "T1 sequence (O35678 1-303)": "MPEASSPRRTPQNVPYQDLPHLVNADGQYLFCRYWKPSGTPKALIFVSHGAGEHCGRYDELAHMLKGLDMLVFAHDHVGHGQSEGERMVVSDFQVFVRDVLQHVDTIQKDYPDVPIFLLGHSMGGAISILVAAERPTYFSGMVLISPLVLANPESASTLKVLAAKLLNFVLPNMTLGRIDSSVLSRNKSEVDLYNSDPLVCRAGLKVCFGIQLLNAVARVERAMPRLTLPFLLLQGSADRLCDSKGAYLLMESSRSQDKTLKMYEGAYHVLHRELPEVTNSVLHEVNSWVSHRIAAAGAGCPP", "experiment": "MG hydrolase activity with recombinant purified mMGL", "assay_type": "biochemical", "settings": "100 µM compound", "experimental": "(§1) Structure-activity studies in the development of a hydrazone based inhibitor of adipose-triglyceride lipase (ATGL)\n(§2) Nicole Mayer, Martina Schweiger, Michaela-Christina Melcher, Christian Fledelius, Rudolf Zechner, Robert Zimmermann and Rolf Breinbauer […]\n(§3) µM Inhibitor µM Inhibitor\n(§4) Fig. S1: Selectivity tests of 1a and 1h with white adipose tissue fat pads of wt, ATGL-ko, and […]\nFig S2. LPL (left) and Monoglyceride hydrolase (MGH) (right) activities in the absence or presence of 100 µM compound 1h.\n(§5) (also on this page, place not known: µmol glycerol/h*mg protein nmol FFA/ml/min nmol FFA/h*mg nmol FFA/h*mg) […]\n(§6) Lipolysis of isolated WAT organ cultures - Gonadal fat pads of wild-type, ATGL deficient (ATGL-ko), and HSL deficient (HSL-ko) mice were surgically removed and washed several times with PBS.\nTissue pieces (~15 mg) were preincubated in DMEM containing 0, 10, 100, and 200 µM inhibitors for 8 h at C37°C, 5% CO2, 95 % humidified atmosphere. […] Then, aliquots of the medium were removed and analyzed for FA and glycerol content using commercial kits (HR Series NEFA-HR(2), WAKO Diagnostics, Neuss, Germany; Sigma, St. […]\nviability assays, cells were seeded at an initial density of […] cells per well in 12-well plates and cultured under standard conditions for 24 hours. […] After solubilization for 10 min at room temperature absorbance was measured at 540 nm. […]"}, "[2]": {"target": "T2, murine ATGL (Mus musculus, UniProt Q8BJ56)", "T2 construct": "expressed in transfected cells; host or cells: COS-7 (ATCC CRL-1651), transient transfection with Metafectene; crude lysate after 1000 x g spin", "T2 sequence (Q8BJ56 1-486)": "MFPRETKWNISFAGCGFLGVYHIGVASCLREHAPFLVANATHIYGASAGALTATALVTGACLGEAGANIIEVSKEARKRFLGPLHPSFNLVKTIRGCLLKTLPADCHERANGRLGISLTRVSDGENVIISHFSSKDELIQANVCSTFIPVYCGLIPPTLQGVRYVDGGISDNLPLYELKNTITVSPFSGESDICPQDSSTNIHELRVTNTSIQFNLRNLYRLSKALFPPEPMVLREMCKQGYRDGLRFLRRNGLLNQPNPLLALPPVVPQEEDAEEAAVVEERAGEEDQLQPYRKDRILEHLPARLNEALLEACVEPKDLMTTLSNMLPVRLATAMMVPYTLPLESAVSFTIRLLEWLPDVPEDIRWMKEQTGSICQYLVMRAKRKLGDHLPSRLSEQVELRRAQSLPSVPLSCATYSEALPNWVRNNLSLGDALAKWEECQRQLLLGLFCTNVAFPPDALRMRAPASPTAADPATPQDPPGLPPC", "experiment": "Triglyceride hydrolase activity assay with COS7-cell lysate overexpressing recombinant murine ATGL, radiolabelled triolein substrate", "assay_type": "biochemical", "protocol": "All synthesized test compounds were screened for their efficiency to inhibit ATGL activity in vitro in an assay using radiolabelled triolein as substrate.[20] As ATGL cannot be purified, the assays were performed with COS7-cell lysates from cells overexpressing recombinant murine ATGL. For the determination of the IC50-value inhibitors were administered with increasing concentrations to the enzyme and its substrate. To determine the ATGL-inhibition efficiency at 200 μM (I200), 200 μM inhibitor was administered to the enzyme and its substrate.\nFor the determination of TG hydrolase activity cell lysates of COS-7 cells overexpressing recombinant murine ATGL were used. Therefore, monkey embryonic kidney cells (Cos-7; ATCC CRL-1651) were cultivated in Dulbeccos modified eagles medium (DMEM, GIBCO, Invitrogen Corp., Carlsbad, CA), containing 10% fetal calf serum (FCS, Sigma–Aldrich) and antibiotics (100 IU/mL penicillin and 100 μg/mL streptomycin) at standard conditions (37 °C, 5% CO2, 95% humidified atmosphere). Cells were transfected with 1 μg DNA complexed to Metafectene (Biontex GmbH, Munich, Germany) in serum free DMEM. After 4 h the medium was replaced by DMEM supplemented with 10% FCS. For the preparation of cell lysates, cells were washed with 1× phosphate buffered saline, collected using a cell scraper, and disrupted in buffer A (0.25 M sucrose, 1 mM EDTA, 1 mM dithiothreitol, 20 μg/mL leupeptine, 2 μg/mL antipain, 1 μg/mL pepstatin, pH 7.0) by sonication (Virsonic 475, Virtis, Gardiner, NJ). Nuclei and unbroken cells were removed by centrifugation (1000×g, 4 °C, for 10 min). Protein concentration of the cell lysates were determined by Bio-Rad protein assay according to the manufacturer’s protocol (Bio-Rad 785, Bio-Rad Laboratories, Munich, Germany), using BSA as standard.\nThe triolein (TO) substrate was prepared as described. […] In brief, 330 μM triolein (40,000 cpm/nmol) (GE Healthcare) was emulsified with 45 μM phosphatidylcholine/phosphatidylinositol (3:1) (Sigma) in 100 mM potassium phosphate buffer (pH 7.0) by sonication (Virsonic 475, Virtis) and was adjusted to 5% (w/v) fatty acid free bovine serum albumin (BSA, Sigma). 100 μL (20 μg protein) cell lysate or 2 μl purified recombinant LPL (Sigma–Aldrich) were incubated with 100 μL TO substrate in the presence or in the absence of inhibitors in a water bath for 1 h at 37 °C. After incubation, the reaction was terminated by adding 3.25 mL of methanol/chloroform/heptane (10:9:7) and 1 mL of 0.1 M potassium carbonate, 0.1 M boric acid (pH 10.5). After centrifugation (800 g, 15 min), the radioactivity in 1 mL of the upper phase was determined by liquid scintillation counting."}, "[3]": {"tested_on": "lipoprotein lipase", "experiment": "LPL activity with purified recombinant LPL and triolein substrate", "assay_type": "biochemical", "settings": "100 µM compound", "experimental": "The triolein (TO) substrate was prepared as described. In brief, 330 μM triolein (40,000 cpm/nmol) (GE Healthcare) was emulsified with 45 μM phosphatidylcholine/phosphatidylinositol (3:1) (Sigma) in 100 mM potassium phosphate buffer (pH 7.0) by sonication (Virsonic 475, Virtis) and was adjusted to 5% (w/v) fatty acid free bovine serum albumin (BSA, Sigma). 100 μL (20 μg protein) cell lysate or 2 μl purified recombinant LPL (Sigma–Aldrich) were incubated with 100 μL TO substrate in the presence or in the absence of inhibitors in a water bath for 1 h at 37 °C. After incubation, the reaction was terminated by adding 3.25 mL of methanol/chloroform/heptane (10:9:7) and 1 mL of 0.1 M potassium carbonate, 0.1 M boric acid (pH 10.5). After centrifugation (800 g, 15 min), the radioactivity in 1 mL of the upper phase was determined by liquid scintillation counting.\nas §1, §2, §3, §4\nFig S2. LPL (left) and Monoglyceride hydrolase (MGH) (right) activities in the absence or presence of 100 µM compound 1h. […]"}, "[4]": {"tested_on": "AML-12 mouse hepatocytes cells", "experiment": "Tox 4 toxicity test (neutral red viability)", "assay_type": "cell-based", "settings": "1, 10, 100, 200 µM inhibitor", "experimental": "Fig. S3: Toxicity test of inhibitor 1h using Tox 4-test with AML-12 mouse hepatocytes cells […]\nas §6\n(§7) Tissue pieces (~15 mg) were preincubated in DMEM containing 0, 10, 100, and 200 µM inhibitors for 8 h at C37°C, 5% CO2, 95 % humidified atmosphere. Thereafter, the medium was replaced by DMEM containing 2 % BSA (fatty acid-free) and 0, 10, 100, and 200 µM inhibitors, and incubated for another 60 min at 37°C. Then, aliquots of the medium were removed and analyzed for FA and glycerol content using commercial kits (HR Series NEFA-HR(2), WAKO Diagnostics, Neuss, Germany; Sigma, St.\nLouis, MO). […]\nviability assays, cells were seeded at an initial density of […] cells per well in 12-well plates and cultured under standard conditions for 24 hours. […] After solubilization for 10 min at room temperature absorbance was measured at 540 nm.\nDetermination of MG hydrolase activity. Monoacylglycerol hydrolase activities were determined using recombinant, purified mMGL and rac-1-(3)-oleoylglycerol as substrate as described (Taschler, U. et al. Monoglyceride lipase deficiency in mice impairs lipolysis and attenuates diet-induced insulin"}, "[5]": {"tested_on": "WAT (white adipose tissue) organ cultures", "experiment": "Lipolysis of isolated WAT organ cultures of wild-type, ATGL-ko and HSL-ko mice (FA release)", "assay_type": "cell-based", "text": "As the hydrazone moiety is regarded as a problematic molecular group due to its metabolic instability resulting in toxic side products,[12] we prepared compound 8 which can be regarded as a variant of 1a missing one nitrogen atom (Scheme 5). […] Taken together these efforts have shown that the hydrazone moiety is an essential element of the biological activity of the hit compound 1a and could not be replaced by the most obvious structural isosteres. In order to further characterize our hit compound 1a and best inhibitor 1h, these compounds were tested for ATGL- and HSL-selectivity by the determination of lipolysis in WAT (white adipose tissue) organ cultures of wild-type, ATGL-ko, and HSL-ko mice. […]\nµM Inhibitor µM Inhibitor […]\nas §5, §6, §7\nLouis, MO). For protein determinations, fat pads were washed extensively with PBS and lysed in 0.3 […]\nU. et al. Monoglyceride lipase deficiency in mice impairs lipolysis and attenuates diet-induced insulin"}}, "note": "Entries after “also recorded” stand apart in the source; their conditions may differ."}
{"compound": "Oc1ccc(/C=N/N2CCN(c3ccccc3)CC2)c(O)c1", "note": "[Compound 1h, (E)-4-(4-Phenylpiperazin-1-ylimino)methylbenzene-1,3-diol]", "values": [{"measurement": "melting point", "value": "183 to 184", "unit": "°C"}, {"measurement": "inhibition of monoglyceride lipase (MGL)", "setting": "[1]", "value": "does not inhibit"}, {"measurement": "inhibition at 200 µM", "setting": "[2]; 1 h, ATGL-inhibition efficiency at 200 μM inhibitor, read-out: I200 (%)", "value": 94, "unit": "%"}, {"measurement": "IC50", "setting": "[2]; COS7-cell lysate overexpressing murine ATGL", "value": 10, "unit": "µM"}, {"measurement": "inhibition of lipoprotein lipase", "setting": "[3]", "value": "does not inhibit"}, {"measurement": "toxicity (Tox 4 toxicity test)", "setting": "[4]", "value": "toxic; also recorded: intrinsic toxicity"}, {"measurement": "FA release (lipolysis)", "setting": "[5]; 0, 10, 100, 200 µM inhibitor, fat pads of wt, ATGL-ko, HSL-ko mice", "value": "dose dependent reduction of FA release"}, {"measurement": "selectivity between ATGL and HSL", "setting": "[5]; lipolysis similarly decreased in ATGL and HSL deficient adipose tissue", "value": "no selectivity; also recorded: limited specificity"}]}
